Assay results published in patent US20260007644A1, “NIMODIPINE COMPOSITION FREE OF ETHANOL AND PHOSPHOLIPID FOR MOIST HEAT STERILIZATION AND METHOD FOR PREPARING SAME” (BEIJING DELIVERY PHARMACEUTICAL TECHNOLOGY CO., LTD, priority 2022, published 2026).

Experiments:
[1] = cited from earlier work
[2] = Description / appearance of the concentrates (visual inspection); format: physicochemical; settings: 1.00 g active ingredient, HS15 45.00 g, propylene glycol 54.00 g, sterilized at 121° C. for 15 minutes
Method: The formation of solution upon dilution with 5% dextrose injection and the stability of the diluted solutions (the concentration of nimodipine is 0.1 mg/mL) were observed.
According to the Guidelines for the Stability Testing of Drug Substances and Preparations in Section 9001 of the General Notices, Pharmacopoeia of the People's Republic of China 2020, Volume IV, the concentrates prepared in Example 10 were tested at a temperature of 60° C. or under the light with an intensity of 5000 Lux, and sampled at the end of the 5th, 10th and 30th days to examine the specified items. • 1.
Method: visual inspection.

Compound | solubility in water [1] | formation of a clear and transparent solution in the system of HS15 and propylene glycol [2]
COCCOC(=O)C1=C(C)NC(C)=C(C(=O)OC(C)C)C1c1cccc([N+](=O)[O-])c1 (racemic) [Nimodipine, 1-methylethyl 2-methoxyethyl (±)-2,6-dimethyl-4-(3-nitrophenyl)-1,4-dihydropyridine-3,5-dicarboxylate] | insoluble in water | 
C=C1CC[C@@H]2[C@](C)(CO)[C@H](O)CC[C@@]2(C)[C@@H]1C/C=C1/C(=O)OC[C@H]1O [andrographolide] |  | failed to form clear and transparent solutions
CC[C@@H]([C@H](C)O)n1ncn(-c2ccc(N3CCN(c4ccc(OC[C@@H]5CO[C@@](Cn6cncn6)(c6ccc(F)cc6F)C5)cc4)CC3)cc2)c1=O [posaconazole] |  | failed to form clear and transparent solutions
COc1cc([C@@H]2c3cc4c(cc3[C@@H](O[C@@H]3O[C@@H]5CO[C@@H](c6cccs6)O[C@H]5[C@H](O)[C@H]3O)[C@H]3COC(=O)[C@H]23)OCO4)cc(OC)c1O [teniposide] |  | failed to form clear and transparent solutions
ginsenoside |  | failed to form clear and transparent solutions
